≈ marks a conversion by molar mass, not a printed value. Like-named read-outs stand apart in the source and are kept apart here.
Test: solubility of branaplam in selected excipients
Assay type: physicochemical
Settings: pH 4, aqueous with cosolvent or surfactant or cyclodextrin, thermodynamic from solid
Experimental: (§1) Solubility of branaplam was evaluated in excipients, other than cyclodextrin, such as Cremophor RH40, Tween 80, PG, PEG300, and glycerol. These excipients and concentrations were selected as they are suitable for paediatric formulations. None of the tested excipients was able to support development of a formulation comprising branaplam at a concentration high enough (i.e. about 2 mg/ml or higher) to keep the dose volume in a suitable range (Table 6).
as §1, with “5a).” for “6).”
Solubility of branaplam was measured as follows: stock solutions for the excipients at target concentrations were prepared using milli-Q water and adjusted using pH 4.0 buffer. […] Suspensions were stirred for 24 hours (using a magnetic stirrer) ensuring sufficient swirling and monitoring the temperature. The suspensions were filtered through 0.45 μm nominal pore size filter (e.g. using a PES syringe), and the concentration of branaplam in the filtrate was measured using HPLC (high performance liquid chromatography). The measurements were performed in duplicate and average of the values are reported.

SMILES: CC1(C)CC(Oc2ccc(-c3ccc(-c4cn[nH]c4)cc3O)nn2)CC(C)(C)N1 [branaplam, 5-(1H-pyrazol-4-yl)-2-(6-((2,2,6,6-tetramethylpiperidin-4-yl)oxy)pyridazin-3-yl)phenol]
- solubility at 24 h (aqueous excipient stock solution, 2 °C, in Cremophor RH 40 3.5% (w/w), 2-8° C., read-out: Solubility (mg/mL) 2-8° C.): 0.44 mg/mL (≈ 1120 µM)
- solubility at 24 h (aqueous excipient stock solution, 2 °C, in Cremophor RH 40 7.0% (w/w), 2-8° C., read-out: Solubility (mg/mL) 2-8° C.): 0.71 mg/mL (≈ 1800 µM)
- solubility at 24 h (aqueous excipient stock solution, 2 °C, in Cremophor RH 40 15.0% (w/w), 2-8° C., read-out: Solubility (mg/mL) 2-8° C.): 1.19 mg/mL (≈ 3020 µM)
- solubility at 24 h (aqueous excipient stock solution, 2 °C, in Glycerol 5.0% (w/v), pH 4.0 buffer, 2-8° C., read-out: Solubility (mg/mL) 2-8° C.): 0.2 mg/mL (≈ 508 µM)
- solubility at 24 h (aqueous excipient stock solution, 2 °C, in Glycerol 10.0% (w/v), pH 4.0 buffer, 2-8° C., read-out: Solubility (mg/mL) 2-8° C.): 0.19 mg/mL (≈ 483 µM)
- solubility at 24 h (aqueous excipient stock solution, 2 °C, in Glycerol 25.0% (w/w), 2-8° C., read-out: Solubility (mg/mL) 2-8° C.): 0.37 mg/mL (≈ 940 µM)
- solubility at 24 h (aqueous excipient stock solution, 2 °C, in PEG 300 5.0% (w/v), pH 4.0 buffer, 2-8° C., read-out: Solubility (mg/mL) 2-8° C.): 0.27 mg/mL (≈ 686 µM)
- solubility at 24 h (aqueous excipient stock solution, 2 °C, in PEG 300 10.0% (w/v), pH 4.0 buffer, 2-8° C., read-out: Solubility (mg/mL) 2-8° C.): 0.34 mg/mL (≈ 864 µM)
- solubility at 24 h (aqueous excipient stock solution, 2 °C, in PEG 300 25.0% (w/v), pH 4.0 buffer, 2-8° C., read-out: Solubility (mg/mL) 2-8° C.): 0.87 mg/mL (≈ 2210 µM)
- solubility at 24 h (aqueous excipient stock solution, 2 °C, in PEG 400 5.0% (w/v), pH 4.0 buffer, 2-8° C., read-out: Solubility (mg/mL) 2-8° C.): 0.21 mg/mL (≈ 534 µM)
- solubility at 24 h (aqueous excipient stock solution, 2 °C, in PEG 400 10.0% (w/v), pH 4.0 buffer, 2-8° C., read-out: Solubility (mg/mL) 2-8° C.): 0.45 mg/mL (≈ 1140 µM)
- solubility at 24 h (aqueous excipient stock solution, 2 °C, in PEG 400 25.0% (w/v), pH 4.0 buffer, 2-8° C., read-out: Solubility (mg/mL) 2-8° C.): 0.93 mg/mL (≈ 2360 µM)
- solubility at 24 h (aqueous excipient stock solution, 2 °C, in Propylene glycol 5.0% (w/v), pH 4.0 buffer, 2-8° C., read-out: Solubility (mg/mL) 2-8° C.): 0.16 mg/mL (≈ 407 µM)
- solubility at 24 h (aqueous excipient stock solution, 2 °C, in Propylene glycol 10.0% (w/v), pH 4.0 buffer, 2-8° C., read-out: Solubility (mg/mL) 2-8° C.): 0.18 mg/mL (≈ 457 µM)
- solubility at 24 h (aqueous excipient stock solution, 2 °C, in Propylene glycol 25.0% (w/v), pH 4.0 buffer, 2-8° C., read-out: Solubility (mg/mL) 2-8° C.): 0.42 mg/mL (≈ 1070 µM)
- solubility at 24 h (aqueous excipient stock solution, 2 °C, in Tween 80 0.5% (w/v), pH 4.0 buffer, 2-8° C., read-out: Solubility (mg/mL) 2-8° C.): 0.16 mg/mL (≈ 407 µM)
- solubility at 24 h (aqueous excipient stock solution, 2 °C, in Tween 80 0.8% (w/v), pH 4.0 buffer, 2-8° C., read-out: Solubility (mg/mL) 2-8° C.): 0.22 mg/mL (≈ 559 µM)
- solubility at 24 h (aqueous excipient stock solution, 2 °C, in Tween 80 1.5% (w/v), pH 4.0 buffer, 2-8° C., read-out: Solubility (mg/mL) 2-8° C.): 0.29 mg/mL (≈ 737 µM)
- solubility at 24 h (aqueous excipient stock solution, 2 °C, in Tween 80 5.0% (w/v), pH 4.0 buffer, 2-8° C., read-out: Solubility (mg/mL) 2-8° C.): 0.73 mg/mL (≈ 1860 µM)
- solubility at 24 h (aqueous excipient stock solution, 25 °C, in Cremophor RH 40 1.0% (w/w), RT, read-out: Solubility (mg/mL) RT): 0.28 mg/mL (≈ 712 µM)
- solubility at 24 h (aqueous excipient stock solution, 25 °C, in Cremophor RH 40 3.5% (w/w), RT, read-out: Solubility (mg/mL) RT): 0.53 mg/mL (≈ 1350 µM)
- solubility at 24 h (aqueous excipient stock solution, 25 °C, in Cremophor RH 40 7.0% (w/w), RT, read-out: Solubility (mg/mL) RT): 0.84 mg/mL (≈ 2130 µM)
- solubility at 24 h (aqueous excipient stock solution, 25 °C, in Cremophor RH 40 15.0% (w/w), RT, read-out: Solubility (mg/mL) RT): 1.32 mg/mL (≈ 3350 µM)
- solubility at 24 h (aqueous excipient stock solution, 25 °C, in Glycerol 5.0% (w/v), pH 4.0 buffer, RT, read-out: Solubility (mg/mL) RT): 0.18 mg/mL (≈ 457 µM)
- solubility at 24 h (aqueous excipient stock solution, 25 °C, in Glycerol 10.0% (w/v), pH 4.0 buffer, RT, read-out: Solubility (mg/mL) RT): 0.22 mg/mL (≈ 559 µM)
- solubility at 24 h (aqueous excipient stock solution, 25 °C, in Glycerol 25.0% (w/w), RT, read-out: Solubility (mg/mL) RT): 0.38 mg/mL (≈ 966 µM)
- solubility at 24 h (aqueous excipient stock solution, 25 °C, in PEG 300 5.0% (w/v), pH 4.0 buffer, RT, read-out: Solubility (mg/mL) RT): 0.39 mg/mL (≈ 991 µM)
- solubility at 24 h (aqueous excipient stock solution, 25 °C, in PEG 300 10.0% (w/v), pH 4.0 buffer, RT, read-out: Solubility (mg/mL) RT): 0.64 mg/mL (≈ 1630 µM)
- solubility at 24 h (aqueous excipient stock solution, 25 °C, in PEG 300 25.0% (w/v), pH 4.0 buffer, RT, read-out: Solubility (mg/mL) RT): 1.61 mg/mL (≈ 4090 µM)
- solubility at 24 h (aqueous excipient stock solution, 25 °C, in PEG 400 5.0% (w/v), pH 4.0 buffer, RT, read-out: Solubility (mg/mL) RT): 0.39 mg/mL (≈ 991 µM)
- solubility at 24 h (aqueous excipient stock solution, 25 °C, in PEG 400 10.0% (w/v), pH 4.0 buffer, RT, read-out: Solubility (mg/mL) RT): 0.63 mg/mL (≈ 1600 µM)
- solubility at 24 h (aqueous excipient stock solution, 25 °C, in PEG 400 25.0% (w/v), pH 4.0 buffer, RT, read-out: Solubility (mg/mL) RT): 1.47 mg/mL (≈ 3740 µM)
- solubility at 24 h (aqueous excipient stock solution, 25 °C, in Propylene glycol 5.0% (w/v), pH 4.0 buffer, RT, read-out: Solubility (mg/mL) RT): 0.27 mg/mL (≈ 686 µM)
- solubility at 24 h (aqueous excipient stock solution, 25 °C, in Propylene glycol 10.0% (w/v), pH 4.0 buffer, RT, read-out: Solubility (mg/mL) RT): 0.37 mg/mL (≈ 940 µM)
- solubility at 24 h (aqueous excipient stock solution, 25 °C, in Propylene glycol 25.0% (w/v), pH 4.0 buffer, RT, read-out: Solubility (mg/mL) RT): 0.94 mg/mL (≈ 2390 µM)
- solubility at 24 h (aqueous excipient stock solution, 25 °C, in Tween 80 0.5% (w/v), pH 4.0 buffer, RT, read-out: Solubility (mg/mL) RT): 0.25 mg/mL (≈ 635 µM)
- solubility at 24 h (aqueous excipient stock solution, 25 °C, in Tween 80 0.8% (w/v), pH 4.0 buffer, RT, read-out: Solubility (mg/mL) RT): 0.28 mg/mL (≈ 712 µM)
- solubility at 24 h (aqueous excipient stock solution, 25 °C, in Tween 80 1.5% (w/v), pH 4.0 buffer, RT, read-out: Solubility (mg/mL) RT): 0.41 mg/mL (≈ 1040 µM)
- solubility at 24 h (aqueous excipient stock solution, 25 °C, in Tween 80 5.0% (w/v), pH 4.0 buffer, RT, read-out: Solubility (mg/mL) RT): 0.89 mg/mL (≈ 2260 µM)
- solubility at 24 h (glycerol 25.0% (w/v) aqueous solution in pH 4.0 buffer, 2 °C, in Glycerol 25.0% (w/v), pH 4.0 buffer, 2-8° C., read-out: Solubility (mg/mL) 2-8° C.): 0.37 mg/mL (≈ 940 µM)
- solubility at 24 h (glycerol 25.0% (w/v) aqueous solution in pH 4.0 buffer, 25 °C, in Glycerol 25.0% (w/v), pH 4.0 buffer, RT, read-out: Solubility (mg/mL) RT): 0.38 mg/mL (≈ 966 µM)
